Assay: Drug-release test of drug-carrying contact lenses
Format: physicochemical
Text: The drug-release tests are respectively performed on the first encapsulation-type drug-carrying contact lens and the drug-soaking type contact lens of the present invention to understand the drug-release thereof.
In one embodiment, the encapsulation-type drug-carrying contact lens adopts a hydrophobic antibiotic—Azithromycin, which is an oral azalide group antibiotic that is a subgroup of macrolides, and which is a broad-spectrum antibiotic effective to Gram-positive bacteria, Gram-negative bacteria, anaerobic bacteria, Chlamydia, helicoids, etc. […] Such a phenomenon may be attributed to the fact: the higher the temperature, the higher the oscillation frequency of the drug molecules, and the greater the quantity of the drug molecules diffusing out. In the present invention, the drug-release amount can be quantitively controlled according to the application environment. Therefore, the present invention has a potential to realize a customized drug-carrying contact lens.
In one embodiment, the drug-soaking type drug-carrying contact lens adopts Vitamin B12, which is a hydrophilic drug and effective to pernicious anaemia, and which is a red crystalline powder likely to absorb humidity, easy to dissolve in water and alcohol, and slightly unstable in the environment of light, strong acid, and base. […] Such a phenomenon is attributed to the fact that the greater the concentration difference, the higher the driving force of drug molecule diffusion.

release of Vitamin B12 versus drug-carrying contact lens free of drug carriers (drug-soaking type drug-carrying contact lens containing the drug carriers, FIG. 7(a))	release quantity of Azithromycin with respect to temperature (encapsulation-type drug-carrying contact lens, FIG. 6)	Compound	drug-release rate with respect to drug concentration (drug-soaking type drug-carrying contact lens, different concentrations of Vitamin B12, FIG. 7(b))
more slowly		Vitamin B12	increases with the concentration of the drug molecules
	increases with the temperature	CC[C@H]1OC(=O)[C@H](C)[C@@H](O[C@H]2C[C@@](C)(OC)[C@@H](O)[C@H](C)O2)[C@H](C)[C@@H](O[C@@H]2O[C@H](C)C[C@H](N(C)C)[C@H]2O)[C@](C)(O)C[C@@H](C)CN(C)[C@H](C)[C@@H](O)[C@]1(C)O [Azithromycin]	

From patent US8623400B2, “Drug-carrying contact lens and method for fabricating the same” (National Chiao Tung University, priority 2011, dated 2014)
